Measurements from US11571485B2, “Peptides and antibodies for detecting changes in alzheimer's disease brain and methods of use thereof” (Sanford Burnham Prebys Medical Discovery Institute, priority 2016, dated 2023).

Assays:
[1] = test system: hippocampus of hAPP-J20 AD and wild-type mice; assay: In vivo CX7C T7 phage library screen, sequencing of phage recovered from hippocampus; parameters: species or system mouse; details: 9-month AD mouse vs normal mouse hippocampus
Procedure: In vivo phage screening was conducted using a T7 phage library expressing random peptides with the composition of CXnC (C=cysteine; X=any amino acid; n=7). The mouse model used for this screening is the hAPP-J20 that expresses amyloid precursor protein (APP) with both the Swedish and Indiana mutations (Murrell et al., Science 254, 97-99. (1991); Mullan et al., Nat. Genet. 1, 345-347. (1992)). Peptides homing to the hippocampus of these mice was the focus because the hippocampal region is where the AB-related lesions and damage are most prevalent early on in the disease.
A CX7C phage library was intravenously injected into 9 month-old AD and wild-type (WT) littermate mice, and allowed to circulate for 30 min, after which mice were perfused with saline, brains were collected, and the hippocampal region was dissected and subjected to phage titration and high throughput sequencing of the phage inserts. A surprise result was that the number of phage recovered from the AD hippocampus samples was much higher than the number recovered from a similar screen on normal littermates of the AD mice (FIG. 1A). […] BBB leakage has also been reported in AD patients.
Parallel phage library screens were performed on a normal mouse and a 9-month old AD transgenic mouse (J20 hAPP tg mouse line, which expresses transgenic amyloid precursor protein with two disease-related mutations). The library was intravenously injected into anesthetized mice and the hippocampal area of the brain was collected 30 min after intravenous injection of the library, phage was isolated from the tissue samples and subjected to high throughput sequencing of the peptide-encoding inserts in the phage DNA. Table 1 list most abundantly represented peptide from the two kinds of brains, and all peptides with significant representation in the AD brain and absent or nearly absent in the normal brain are listed in Table 2. Two peptides, CASPRLSKC (SEQ ID NO: 3) and CESPLLSEC (SEQ ID NO: 11), from among the highest scoring ones were subjected to detailed studies as described below.
hAPP-J20 mice were intravenously injected with 1e10 pfu of a CX7C (wherein X is any amino acid) naïve phage library, in 100 μL of PBS. The library was allowed to circulate for 30 minutes, after which mice were anesthetized with 2.5% avertin and perfused with PBS intracardially. The brain was removed and the hippocampus was extracted and homogenized in LB-NP 40 (1%) and phage was processed as described (Teesalu et al., Methods Enzymol 503, 35-56 (2012)). The phages in the lysate were rescued by amplification in E. coli and peptide-encoding portion of the phage genome was sequenced using Ion Torrent high throughput sequencing.

albumin (BSA) = albumin (BSA) (Bos taurus, UniProt P02769); assay: ELISA binding to control protein
[2] = test system: human iPS cell-derived endothelial cells (ECs) from an AD patient; assay: AgNP binding to hiPSC-derived brain endothelial cells; assay type: cell-based
Text: Human iPS cell-derived from an AD patient and from a normal individual were differentiated into endothelial cells and the cultured cells were used in an overlay assay with DAG-coated and control AgNP.
The details of human induced pluripotent stem cells (hiPSCs) derived from Alzheimer disease patients with APP duplication, and non-demented control individuals, are described previously (Israel et al., Nature 482, 216-220 (2012)). These hiPSCs were extensively characterized and have been established as an excellent human model for AD. An additional AD hiPSC line generated from dermal fibroblasts from an individual harboring a Presenilinl (PSEN1) mutation (Coriell Institute, Cat #AG06840) was used to further validate the results from the APP lines. hiPSCs were routinely maintained on mouse embryonic fibroblast as described before (Lin et al., Nat Methods 6, 805-808 (2009); Talantova et al., Proc Natl Acad Sci USA 110, E2518-2527 (2013)). Brain microvascular endothelial cells differentiation of hiPSCs was performed using a previously described protocol (Lippmann et al., Nature biotechnology 30, 783-791 (2012), with minor modifications. Briefly, feeder-free cultures of hiPSCs were allowed to spontaneously differentiate in the absence of bFGF for 5-7 days, and then transferred to Endothelial cell (EC) medium composed of human Endothelial Serum-Free Medium™ (Invitrogen) supplemented with 20 ng/ml bFGF and 1% platelet-poor plasma-derived bovine serum (PDS; Biomedical Technologies). After 1-2 days the cells were dissociated with dispase (2 mg/ml) and were plated on 12 well plates coated with a mixture of collagen IV (400 μg/ml) and fibronectin (100 μg/ml). Cells were then cultured in EC medium until they reached confluence, after which they were split and expanded to near 100% purity. BBB-type EC identity was confirmed by flow cytometry or double immunoreactivity to the hallmark efflux transporter p-glycoprotein and other EC markers (CD31, GLUT-1, PECAM, Occludin, and Claudin-5). Furthermore, the capability of these cells to make functional tight junctions and polarized efflux activity was validated using a dual chamber efflux transport assay as described before.
Cell binding experiments on U251 cells and hiPSCs were with done using peptide conjugated AgNP. U251 cells were cultured in a 96-well plate. The cells were blocked with 200 μl of 10% FCS in HBSS (Hanks' Balanced Salt Solution from Gibco) for 30 min at 37° C. Following that, DAG-AgNPs (0.5 nM concentration diluted in HBSS) alone or in the presence of free non-labeled peptide (200 μM) were incubated on the cells for 1 hour at 37° C. After washing the unbound AgNP with HBSS three times, the plates were imaged with fluorescent microscopy by looking at intrinsic emission from the FAM tag on the peptide. hiPSCs were cultured in 48 well plate and similar protocol as described above was followed, with the exception that AgNP concentration for incubation was kept at 0.15 nM. Nanoparticle binding was quantified from fluorescence micrographs using ImageJ™ software.

AD hippocampus = assay: Homing of intravenously injected individual peptide-displaying phages; assay type: in vivo, mouse; details: intravenously injected phage displaying the peptide
Text: FIG. 1B relates to phage titration showing that about 5 times more phage were recovered from the AD hippocampus than from the normal control. In the sequencing, phages displaying the peptides code named CASP (SEQ ID NO: 3; CASPRLSKC), CES (SEQ ID NO: 11, CESPLLSEC), and DAG (SEQ ID NO: 102, CDAGRKQKC) dominated. Hippocampus from age-matched normal wild-type mouse brain was used as a control.

[3] = test system: hAPP-J20 mouse brain (hippocampus)
Procedure: The synthetic peptides were labeled with FAM and 100 nmol and were intravenously injected to 9-month old AD mice through the tail vein. The peptides were allowed to circulate for 30 min, after which the mice were perfused with 20 ml of PBS, the brains were collected and snap-frozen in OCT for sectioning. The peptides were detected by anti-FAM staining (green), nuclei were stained with DAPI (blue), and anti-CD31 was used to visualize blood vessels.
For peptide homing, mice were intravenously injected with 50 nmole peptide dissolved in PBS, and allowed to circulate for 30 min. Mice were then perfused intracardially with saline and all major organs were isolated and fixed in 4% paraformaldehyde (PFA) at pH 7.4 overnight. The organs were then washed with PBS and placed in graded sucrose solutions overnight before optimal cutting temperature compound (OCT) embedding. Ten-micro-meter-thick sections were cut and analyzed by immunostaining.
Frozen sections were permeabilized using PBS- 0.2% Triton™ X-100 (PBST), blocking was carried out using blocking buffer (5% BSA, 1% goat serum, 1% donkey serum in PBST. Primary antibodies were incubated in diluted (1%) blocking buffer overnight at dilutions 1/100 or 1/200 at 4° C., washed with PBST and incubated with secondary antibodies diluted 1/200 or 1/500 in 1% diluted buffer for 1 hour at room temperature, subsequently washed with PBST, counterstained with DAPI 1 μg/mL in PBS for 5 minutes, washed with PBS, mounted using aqueous mounting media (Vector Biolabs), and imaged using a confocal microscope (Zeiss LSM-710).

Chain of albumin (BSA) (P02769 25-607): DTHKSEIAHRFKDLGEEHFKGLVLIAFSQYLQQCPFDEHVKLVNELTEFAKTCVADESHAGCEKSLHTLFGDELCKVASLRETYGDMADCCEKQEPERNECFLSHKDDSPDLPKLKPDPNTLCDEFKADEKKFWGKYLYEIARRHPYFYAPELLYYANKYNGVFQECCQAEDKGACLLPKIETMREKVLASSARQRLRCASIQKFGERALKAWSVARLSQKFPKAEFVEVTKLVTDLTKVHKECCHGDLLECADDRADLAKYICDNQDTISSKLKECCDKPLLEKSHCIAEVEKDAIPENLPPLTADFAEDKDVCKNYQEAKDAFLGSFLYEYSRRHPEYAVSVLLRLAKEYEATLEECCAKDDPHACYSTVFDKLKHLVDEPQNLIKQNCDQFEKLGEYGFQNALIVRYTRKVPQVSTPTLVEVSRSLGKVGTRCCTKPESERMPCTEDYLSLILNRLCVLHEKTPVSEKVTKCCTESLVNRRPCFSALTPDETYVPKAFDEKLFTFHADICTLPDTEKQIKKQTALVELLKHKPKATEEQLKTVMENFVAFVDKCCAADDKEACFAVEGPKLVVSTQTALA

CDAGRKQKC
Representation in sequenced phage pools, AD versus normal brain [1]: dominated
Binding to control protein (BSA) (albumin (BSA)): only minimal binding to a control protein (BSA)
Binding to AD patient iPS cell-derived endothelial cells ([2]; AD patient vs normal donor cells): recognizes endothelial cells differentiated from AD iPS cells and not cells prepared similarly from a control individual
Binding to hiPSC-derived BMECs from non-demented individual ([2]; control cells): did not bind to hiPSC-derived BMECs from a non-demented individual
Phage accumulation in normal brain (AD hippocampus): no accumulation in normal brain
Phage homing to AD hippocampus (AD hippocampus): home to AD hippocampus with high specificity
Homing in early-stage AD ([3]; 3-4 month old hAPP-J20 mice, i.v., 30 min): Robust DAG homing in young hAPP-J20 animals was observed, mostly in the cerebrocortex and the hippocampus
Cellular localization in brain ([3]; DAG-injected hAPP-J20 mice, anti-GFAP and anti-Aβ staining): accumulated within a subpopulation of GFAP-positive hypertrophic astrocytes surrounding the Aβ plaques
Accumulation in other organs ([3]; mouse, in vivo, iv): little if any accumulation of the peptide in other organs of the hAPP-J20 mouse except for kidney
